Patent publication US20210170043A1, “DC-SIGN ANTIBODY CONJUGATES COMPRISING STING AGONISTS” (NOVARTIS AG, priority 2018, published 2021)
One block for each molecule: values may come before it.

How the values were obtained:
human STING wild type = target: T1, human STING wild type (Homo sapiens, UniProt Q86WV6, H232R); assay: hSTING wt assay (5xISRE-mIFNb-GL4 luciferase reporter in transfected HEK-293T cells); assay type: cell-based; settings: read after 9-14 hours, normalized to 2'3'-cGAMP at 50 uM
T1 construct: expressed in transfected cells; host or cells: HEK-293T
Description: Cells were incubated overnight and treated with compounds. After 9-14 hours, plates were read by adding BrightGlo reagent (Promega) and reading on an Envision plate reader. The fold change over background was calculated and normalized to the fold-change induced by 2′3′-cGAMP at 50 uM. Plates were run in triplicate.

THP1-Dual cells = assay: THP1-Dual assay (Lucia reporter); assay type: cell-based; settings: Homo sapiens, 384 well, 16-24 hours, normalized to 2'3'-cGAMP at 50 uM
Description: THP1-Dual cells were purchased from Invivogen. THP1-Dual cells were plated in 384 well plates in 20 uL of tissue culture media and incubated overnight. Compounds were added the next day and incubated 16-24 hours. Lucia reporter signal was read out by adding Quantiluc reagent (Invivogen) followed by reading on an Envision plate reader. The fold change over background was calculated and normalized to the fold-change induced by 2′3′-cGAMP at 50 uM. Plates were run in triplicate.

THP1-Dual/STING-KO cells = assay: THP1-Dual/STING-KO assay; assay type: cell-based; settings: Homo sapiens, pooled STING-KO clones
Description: The fold change over background was calculated and normalized to the fold-change induced by 2′3′-cGAMP at 50 uM. Plates were run in triplicate.

[1] = tested on: transgenic mice expressing human DC-SIGN gene (Tg+); assay: Plasma cytokine production in transgenic mice expressing human DC-SIGN (ELISA / MesoScaleDiscovery); assay type: in vivo, mouse
Description: FIGS. 5A-5E show exemplary data on DC-SIGN immunoconjugates inducing cytokine production in Tg+ mice. […] Plasma levels were analyzed by ELISA (IP-10 and IFNβ) or MesoScaleDiscovery Multiplex analysis (all other analytes). **** denotes p value of <0.0001 using an ANOVA with Tukey's test compared to Tg-2B2 hlgG1 DAPA C1 group.
(§1) Mice were bled 6 hours after dosing to collect plasma for analysis of circulating cytokine levels.

[2] = tested on: transgenic mice expressing human DC-SIGN gene (Tg+); assay: Plasma cytokine and chemokine levels in human DC-SIGN transgenic mice; assay type: in vivo, mouse; settings: 100 μg free compound i.v., 6 hours post dose, vs untreated and 10 μg
Description: Blood was collected at 6 hours post dose to analyze plasma cytokine and chemokine levels and spleens were analyzed at 24 hours post dose to look at dendritic cell activation.
as §1
Plasma was collected at indicated timepoints and analyzed with a Mouse IP-10 Platinum ELISA kit (eBioscience Affymetrix). Plasma was diluted 1:100 and the protocol was followed according to the manufacturer's recommendations. Data was collected using an Enspire spectro-photometer using […] as the primary wavelength.
Plasma was collected at indicated timepoints and analyzed with a Mouse IFN-beta ELISA kit (R&D Systems) according to the manufacturer's recommendations. Data was collected using an Enspire spectro-photometer using […] as the primary wavelength.
Plasma was collected at indicated timepoints and analyzed with a mouse Proinflammatory Panel 1 (mouse) Kit V-PLEX™ 10 plex from MesoScale Discovery. 25 μL of plasma per sample was used and protocol was followed according to the manufacturer's recommendations. Data were collected and analyzed using a Sector Imager 6000.
Human DC-SIGN transgenic mice (Tg+) (Schaefer et al., J. Immunol. (2008) 180 (10) 6836-6845) were bred to Signr1 deficient mice (−/− or KO) (Orr et al., Glycobiology (2013) 23(3): 363-380). Human DC-SIGN expression was checked using PCR to genotype the mice. Human DC-SIGN Tg+ Signr1−/− mice or human DC-SIGN Tg− Signr1−/− mice were tested with compounds as indicated in the above examples.

T1 sequence (Q86WV6 whole entry H232R): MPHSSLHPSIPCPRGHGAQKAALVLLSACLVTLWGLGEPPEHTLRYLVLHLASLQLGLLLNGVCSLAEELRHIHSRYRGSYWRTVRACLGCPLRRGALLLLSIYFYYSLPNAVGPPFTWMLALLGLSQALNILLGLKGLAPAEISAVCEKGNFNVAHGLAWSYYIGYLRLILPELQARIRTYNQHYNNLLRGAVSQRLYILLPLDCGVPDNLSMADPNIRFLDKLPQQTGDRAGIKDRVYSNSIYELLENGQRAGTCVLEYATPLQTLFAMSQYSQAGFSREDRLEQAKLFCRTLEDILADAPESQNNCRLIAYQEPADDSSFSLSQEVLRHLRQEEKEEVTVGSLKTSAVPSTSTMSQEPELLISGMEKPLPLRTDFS

EC50 (human STING wild type): > 25000 nM
SMILES: NCCCNc1ncnc2c1ncn2[C@@H]1O[C@@H]2CO[P@@](=O)(S)O[C@H]3[C@@H](F)[C@H](n4cnc5c(N)ncnc54)O[C@@H]3CO[P@@](=O)(S)O[C@H]2[C@H]1F

SMILES: CCCCCCCCCCO[C@@H]1[C@@H]2O[P@](=O)(S)OC[C@H]3O[C@@H](n4cnc5c(N)ncnc54)[C@H](O[P@](=O)(S)OC[C@H]2O[C@H]1n1cnc2c(N)ncnc21)[C@@H]3O
EC50 (THP1-Dual cells): > 25000 nM

EC50 (human STING wild type): 294 nM | EC50 (THP1-Dual/STING-KO cells): > 50000 nM
SMILES: Nc1ncnc2c1ncn2C1OC2COP(=O)(S)OC3C(COP(=O)(S)OC2C1F)OC(n1cnc2c(N)ncnc21)C3F (stereo not drawn) [Compound T1-1, di-2′-F—RR-CDA]
EC50 (THP1-Dual cells): 462 nM | circulating plasma IL-12p70 [1]: increased | circulating plasma IP-10 [1]: increased | circulating plasma TNFα [1]: increased | plasma IL-12p70 [2]: increased | plasma IP-10 [2]: increased | plasma TNFα [2]: increased

SMILES: Nc1ncnc2c1ncn2[C@@H]1O[C@@H]2CO[P@@](=O)(S)O[C@@H]3[C@H](O)[C@@H](CO[P@@](=O)(S)O[C@H]2[C@H]1F)O[C@H]3n1cnc2c(N)ncnc21 [Compound T1-2]
EC50 (THP1-Dual cells): 1990 nM
